Patent publication EP2529745A1, “VEGF-D/VEGFR mediated regulation of dendrites” (Universität Heidelberg, priority 2011, dated 2012)

Assays:
VEGFD = test: qRT-PCR analysis of VEGFD expression in cultured hippocampal neurons; format: cell-based, mouse
Experimental: RNA extraction and cDNA synthesis. Total RNA was isolated at DIV10 to DIV13 from hippocampal primary neuron cultures or isolated brain tissues with Rneasy Mini Kit (Qiagen, Hilden, Germany) including an optional Dnase I treatment at room temperature for 15 min according to manufacturer's instructions (Qiagen). 1.2 µg of extracted RNA was reverse transcribed into first strand cDNA using High Capacity cDNA Reverse Transcription kit (Applied Biosystems, Foster City, CA).
Real time quantitative PCR. Quantitative reverse transcriptase PCR (qRT-PCR) was done on an ABI7300 thermal cycler using Universal qRT-PCR master mix with TaqMan Gene Expression Assays for the indicated genes (Applied Biosystems). The following TaqMan Gene Expression Assays were used in this study: Gusb (Mm00446953_m1), cFos (Mm00487425_m1), VEGFD (Mm00438965_m1), VEGFC (Mm01202432_m1), VEGF (Mm01281449_m1), VEGFR3 (Mm01292618_m1), beta-actin (Mm00607939_s1), beta-2 microglobulin (Mm00437762_m1), CBP (Mm01342435_m1), p38 MAPK alpha (Mm00442497_m1), p38 MAPK beta (Mm00440955_m1). Expression of target genes was normalized against the expression of Gusb as endogenous control gene. Data were derived from at least 5 independent experiments.

hippocampal neurons = test: Morphometric analyses (total dendritic length, Sholl analysis, spines) of cultured hippocampal neurons; format: cell-based, C57BL/6 mice
Experimental: Hippocampal cultures and transfection. Hippocampal neurons from newborn C57BL/6 mice were cultured as known in the art. Experiments were done after a culturing period of 10 to 14 days in vitro (DIV). DNA transfection was done on DIV8 using Lipofectamine 2000 (Invitrogen, San Diego, CA). For the studies on dendrite morphology, neurons were analyzed 4-5 days after transfection.
Morphometric analyses. For 3D Sholl Analysis, total dendritic length and spine morphology were calculated using Object-Image freeware software with a specific set of macros (written by Dr. E. Ruthazer, McGill University, Quebec). Briefly, a z-Stack acquisition was imported, calibrated in Object-Image and manually traced. Total dendritic length was then computed. For Sholl analysis, the shell interval was set at 5 µm. All analyses were performed blind. In all in vitro experiments, for each condition, a minimum of 12 neurons from three independent preparations was analyzed. For the Golgi staining quantifications of 20 neurons for each condition from 4 different injected animals per viral construct were traced and analyzed. MEA recordings. […]
Immunocytochemistry. […] For the morphometric analyses, fluorescence images were acquired using a confocal laser-scanning microscope TCS SP2 (Leica, Mannheim, Germany) equipped with an inverted fluorescence microscope DM IRE2 (Leica) and Leica confocal scan software. […]

cFos = test: qRT-PCR analysis of cFos expression in cultured hippocampal neurons
VEGFC = test: qRT-PCR analysis of VEGFC expression in cultured hippocampal neurons

Structure (SMILES): C[C@]12N[C@H](Cc3ccccc31)c1ccccc12 [MK801]
- expression of VEGFD mRNA (VEGFD; 10 µM MK801, 10 µM nifedipine or both, DIV5 to DIV10): significantly reduced the expression of VEGFD mRNA

Structure (SMILES): C[S+]([O-])c1ccc(-c2nc(-c3ccncc3)c(-c3ccc(F)cc3)[nH]2)cc1 (stereo not drawn) [SB203580]
- effect on rVEGFD-induced rescue of dendrite length and complexity (hippocampal neurons; neurons expressing CaMBP4 (and CaMKIVK75E), treated 3 days with rVEGFD): severely compromised the ability of rVEGFD to rescue the impairment of dendrite length and complexity
- Sholl analysis (hippocampal neurons; neurons expressing hrGFP, CaMBP4 or CaMKIVK75E, treated with SB203580 without rVEGFD): no difference compared to the respective untreated controls

Structure (SMILES): CN1CCc2cc3c(cc2[C@H]1[C@@H]1OC(=O)c2c1ccc1c2OCO1)OCO3 [Bicuculline]
- cFos mRNA (cFos): robust induction of cFos mRNA
- VEGFD mRNA levels (VEGFD): did not alter VEGFC or VEGFD mRNA levels
- VEGFC mRNA levels (VEGFC): did not alter VEGFC or VEGFD mRNA levels
